From patent US20080275058A1, “N-Substituted-1H-Quinoline-2,4-Diones, Preparation Method Thereof, And Pharmaceutical Composition Containing The Same” (KOREA RESEARCH INSTITUTE OF CHEMICAL TECHNOLOGY, priority 2005, published 2008)
Where two headings read alike, the source gives them in different places.

Columns and labels:
5-HT6 receptors [1] = target: T1, 5-HT6 receptors (Homo sapiens, UniProt P50406); conditions: background literature, cited from earlier work; for affinity at 5-HT6 receptors, in words: antipsychotics
T1 sequence (P50406 whole entry): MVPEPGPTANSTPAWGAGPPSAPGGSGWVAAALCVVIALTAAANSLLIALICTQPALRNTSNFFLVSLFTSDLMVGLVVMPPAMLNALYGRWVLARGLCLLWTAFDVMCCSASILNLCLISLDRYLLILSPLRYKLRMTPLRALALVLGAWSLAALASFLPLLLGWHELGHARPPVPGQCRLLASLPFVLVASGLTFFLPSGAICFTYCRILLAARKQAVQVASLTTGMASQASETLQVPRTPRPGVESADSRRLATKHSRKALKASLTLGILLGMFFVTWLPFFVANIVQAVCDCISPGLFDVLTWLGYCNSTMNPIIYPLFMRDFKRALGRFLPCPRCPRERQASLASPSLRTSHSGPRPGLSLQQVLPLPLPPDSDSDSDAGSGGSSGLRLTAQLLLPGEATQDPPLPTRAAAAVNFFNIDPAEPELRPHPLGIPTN

[2] = cited from earlier work
rat = conditions: cited from earlier work; for anticonvulsant activity: background literature
rats [3] = conditions: water maze; cited from earlier work
[4] = frontal cortex and dorsal hippocampus; cited from earlier work
5-HT2c = target: T2, 5-HT2c (Homo sapiens, UniProt P28335); assay: Radioligand binding, 5-HT2c ([3H]Mesulergine); conditions: Table 4; [3H]Mesulergine 1 nM; read-out: Binding affinity, IC50 (nM) 5-HT2c
T2 construct: purchased Euroscreen/BioSignal Packard Inc
T2 sequence (P28335 33-458): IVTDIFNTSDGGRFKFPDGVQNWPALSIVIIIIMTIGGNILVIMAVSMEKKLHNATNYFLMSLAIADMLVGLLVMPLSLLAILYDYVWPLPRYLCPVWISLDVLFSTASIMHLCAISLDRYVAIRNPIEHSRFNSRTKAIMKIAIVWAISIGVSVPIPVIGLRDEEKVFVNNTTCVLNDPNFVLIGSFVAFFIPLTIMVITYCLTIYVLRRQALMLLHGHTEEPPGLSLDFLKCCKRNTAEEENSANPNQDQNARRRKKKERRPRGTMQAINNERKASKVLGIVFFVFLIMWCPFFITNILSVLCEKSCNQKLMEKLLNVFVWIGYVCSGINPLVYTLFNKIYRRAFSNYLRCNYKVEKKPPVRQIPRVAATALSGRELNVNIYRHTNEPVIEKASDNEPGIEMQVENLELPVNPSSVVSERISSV

rats [5] = assay: Methamphetamine-induced disruption of prepulse inhibition (PPI) in rats; type: in vivo, rat
Protocol: To assay antipsychotic properties of the compounds according to the invention, prepulse inhibition (PPI) of acoustic startle in animals was performed. Startle response was measured using SR-LAB startle chamber (San Diego Instruments, San Diego, USA). The animal enclosure was housed in a ventilated and sound-attenuated startle chamber with 60 dB ambient noise level, and consisted of a Plexiglas cylinder 40 mm in diameter on a platform, connected to a piezoelectric accelerometer which detects and transducer motion within the cylinder. Acoustic noise bursts were presented through a loudspeaker mounted 24 ? above the animal. […] Each startle session began with a 5-min acclimatization period in the chamber to 68 dB background noises. The test session consisting of the following four different trial types was carried for all experiments: a 40 ms broadband 120 dB burst (P; pulse alone trial), P preceded 100 ms earlier by a 20 ms noise burst 10 dB above background (pP; prepulse+pulse trial), a 40 ms broadband 78 dB burst (prepulse alone trial), and a no stimulus trial (background). Eight trials of each type were presented in a pseudorandom order (total32 trials) with an average interval of 15 sec. separating each trial. An extra 5 pulse-alone trials were presented at the beginning and end of each test session, but were not used in the calculation of PPI values. PPI was defined as the percent reduction in startle amplitude in the presence of prepulse compared to the amplitude in the absence of the prepulse using the following Math Equation 1. […] Differences were considered significant at P<0.05. Statistical analyses were conducted using SigmaStat software (SigmaStat, Jandel Co., San Rafael, Calif.). The data were expressed as means±SEM.

hD4.2 receptor = target: T3, hD4.2 receptor (Homo sapiens, UniProt P21917, DEL265-296); assay: Radioligand binding, dopamine D4 ([3H]YM-09151-2); conditions: Table 4; [3H]YM-09151-2 0.06 nM; read-out: Binding affinity, IC50 (nM) D4
T3 construct: purchased BioSignal Packard Inc., Montreal, Canada
T3 sequence (P21917 with tags, fused parts or gaps DEL265-296): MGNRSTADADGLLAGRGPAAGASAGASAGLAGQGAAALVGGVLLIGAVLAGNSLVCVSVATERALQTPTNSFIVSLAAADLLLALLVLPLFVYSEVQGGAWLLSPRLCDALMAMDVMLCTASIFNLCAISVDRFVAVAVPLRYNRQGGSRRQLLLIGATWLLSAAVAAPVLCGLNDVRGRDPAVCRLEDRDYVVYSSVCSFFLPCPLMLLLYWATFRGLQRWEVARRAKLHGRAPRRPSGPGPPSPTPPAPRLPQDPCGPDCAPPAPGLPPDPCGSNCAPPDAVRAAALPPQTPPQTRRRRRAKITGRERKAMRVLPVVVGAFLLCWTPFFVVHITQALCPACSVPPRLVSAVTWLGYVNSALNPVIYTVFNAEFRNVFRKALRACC
Procedure, shortened: (§1)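 IC50 values come from nonlinear fits of three displacement experiments, each using 7-8 test concentrations in duplicate. D2L and D3 membranes were labelled with 1 nM [3H]spiperone, and D4.2 with 0.06 nM [3H]YM-09151-2. All assays used pH 7.4 Tris buffers, with the D3 buffer adding 120 mM NaCl, KCl and CaCl2.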

hD2L = target: T4, hD2L (Homo sapiens, UniProt P14416); assay: Radioligand binding, dopamine D2 ([3H]spiperone); conditions: Table 4; [3H]spiperone 1 nM; read-out: Binding affinity, IC50 (nM) D2
T4 construct: purchased BioSignal Packard Inc., Montreal, Canada
T4 sequence (P14416 whole entry): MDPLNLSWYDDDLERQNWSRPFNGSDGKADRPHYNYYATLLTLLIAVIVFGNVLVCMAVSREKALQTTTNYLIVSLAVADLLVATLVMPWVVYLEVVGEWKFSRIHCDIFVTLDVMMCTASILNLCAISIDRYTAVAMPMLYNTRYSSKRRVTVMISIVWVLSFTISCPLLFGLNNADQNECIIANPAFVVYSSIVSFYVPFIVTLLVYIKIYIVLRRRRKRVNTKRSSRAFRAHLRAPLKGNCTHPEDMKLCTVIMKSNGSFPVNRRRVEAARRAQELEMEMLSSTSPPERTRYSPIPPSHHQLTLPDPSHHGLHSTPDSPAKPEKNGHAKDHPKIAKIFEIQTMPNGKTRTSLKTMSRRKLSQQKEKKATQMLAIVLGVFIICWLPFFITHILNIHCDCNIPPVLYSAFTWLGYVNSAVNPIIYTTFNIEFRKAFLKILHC
Procedure, shortened: as §1

5-HT6 receptors [6] = target: T1, 5-HT6 receptors; conditions: human 5-HT6 receptors, background literature; cited from earlier work
rats [7] = conditions: cited from earlier work
rats [8] = conditions: cited from earlier work; remark: listed apart in the source
mice = assay: Rotarod deficit in mice; type: in vivo, mouse
Procedure, shortened: (§2)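 Compounds suspended in 3% Tween 80 were given p.o. to mice 60 min before testing. Rotarod deficit (%) was the proportion of animals falling within 1 min from a 1 inch knurled rod turning at 6 rpm, scored at 60, 90 and 120 min after dosing.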

Rotarod deficit in mice = type: in vivo, mouse; conditions: mouse, in vivo, po, unit printed as image, read-out: TD50 (median neurotoxic dose)
Procedure, shortened: as §2

5-HT2a = target: T5, 5-HT2a (Homo sapiens, UniProt P28223); assay: Radioligand binding, 5-HT2a ([3H]Ketanserin); conditions: Table 4; [3H]Ketanserin 1 nM; read-out: Binding affinity, IC50 (nM) 5-HT2a
T5 construct: purchased Euroscreen/BioSignal Packard Inc
T5 sequence (P28223 whole entry): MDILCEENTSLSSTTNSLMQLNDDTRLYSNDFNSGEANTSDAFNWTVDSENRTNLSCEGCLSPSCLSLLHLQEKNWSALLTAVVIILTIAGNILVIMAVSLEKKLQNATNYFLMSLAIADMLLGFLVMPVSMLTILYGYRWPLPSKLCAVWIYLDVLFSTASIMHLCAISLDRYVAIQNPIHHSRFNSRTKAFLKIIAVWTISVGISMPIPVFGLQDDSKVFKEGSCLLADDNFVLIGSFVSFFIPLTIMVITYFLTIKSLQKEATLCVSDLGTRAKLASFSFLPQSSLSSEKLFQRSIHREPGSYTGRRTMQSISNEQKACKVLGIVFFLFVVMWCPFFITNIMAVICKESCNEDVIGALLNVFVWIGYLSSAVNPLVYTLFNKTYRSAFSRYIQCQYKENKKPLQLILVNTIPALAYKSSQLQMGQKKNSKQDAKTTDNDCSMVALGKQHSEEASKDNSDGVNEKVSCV

D1 = D1 (Homo sapiens, UniProt P21728); assay: Radioligand binding, dopamine D1; conditions: Table 4; read-out: Binding affinity, IC50 (nM) D1
D1, sequence (P21728 whole entry): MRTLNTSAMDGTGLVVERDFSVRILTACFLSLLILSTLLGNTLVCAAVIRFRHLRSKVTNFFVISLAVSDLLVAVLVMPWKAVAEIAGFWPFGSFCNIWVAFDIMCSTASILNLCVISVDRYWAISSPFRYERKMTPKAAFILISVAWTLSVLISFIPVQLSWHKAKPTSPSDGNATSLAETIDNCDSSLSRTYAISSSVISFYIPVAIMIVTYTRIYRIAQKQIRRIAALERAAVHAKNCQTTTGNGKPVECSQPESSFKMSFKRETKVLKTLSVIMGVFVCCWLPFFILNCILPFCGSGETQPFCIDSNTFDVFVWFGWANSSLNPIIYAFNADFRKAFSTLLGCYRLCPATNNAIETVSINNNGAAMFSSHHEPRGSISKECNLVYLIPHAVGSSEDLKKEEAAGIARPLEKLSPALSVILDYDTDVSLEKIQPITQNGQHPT

5-HT1a = target: T6, 5-HT1a (Homo sapiens, UniProt P08908); assay: Radioligand binding, 5-HT1a ([3H]8-OH-DPAT); conditions: Table 4; [3H]8-OH-DPAT 0.5 nM; read-out: Binding affinity, IC50 (nM) 5-HT1a
T6 construct: purchased Euroscreen/BioSignal Packard Inc
T6 sequence (P08908 1-422): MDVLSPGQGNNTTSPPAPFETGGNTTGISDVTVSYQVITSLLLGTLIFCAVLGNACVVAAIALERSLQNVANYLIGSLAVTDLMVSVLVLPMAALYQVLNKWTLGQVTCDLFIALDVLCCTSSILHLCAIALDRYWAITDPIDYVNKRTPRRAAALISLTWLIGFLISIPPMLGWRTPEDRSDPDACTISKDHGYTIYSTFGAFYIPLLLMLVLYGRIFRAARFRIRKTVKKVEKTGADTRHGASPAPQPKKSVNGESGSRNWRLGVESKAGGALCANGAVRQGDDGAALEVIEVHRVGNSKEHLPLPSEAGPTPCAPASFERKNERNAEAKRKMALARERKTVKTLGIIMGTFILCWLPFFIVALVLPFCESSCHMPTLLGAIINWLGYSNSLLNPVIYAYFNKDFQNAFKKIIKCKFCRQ
Procedure, shortened: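 Supplier-recommended protocol used throughout, with purchased membrane preparations carrying each receptor as the binding source.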

[9] = target: T7, Human serotonin 5-HT6 receptor (Homo sapiens, UniProt P50406); assay: [3H]LSD binding assay on cloned 5-HT6 receptor membranes
T7 construct: made in house; host or cells: insect Sf21 cells (baculovirus vector BacPAK8)
T7 sequence (P50406 whole entry): as the sequence (P50406 whole entry) above

5-HT7 = target: T8, 5-HT7 (Homo sapiens, UniProt P34969); assay: Radioligand binding, 5-HT7 ([3H]LSD); conditions: Table 4; [3H]LSD 3 nM; read-out: Binding affinity, IC50 (nM) 5-HT7
T8 construct: purchased Euroscreen/BioSignal Packard Inc
T8 sequence (P34969 whole entry): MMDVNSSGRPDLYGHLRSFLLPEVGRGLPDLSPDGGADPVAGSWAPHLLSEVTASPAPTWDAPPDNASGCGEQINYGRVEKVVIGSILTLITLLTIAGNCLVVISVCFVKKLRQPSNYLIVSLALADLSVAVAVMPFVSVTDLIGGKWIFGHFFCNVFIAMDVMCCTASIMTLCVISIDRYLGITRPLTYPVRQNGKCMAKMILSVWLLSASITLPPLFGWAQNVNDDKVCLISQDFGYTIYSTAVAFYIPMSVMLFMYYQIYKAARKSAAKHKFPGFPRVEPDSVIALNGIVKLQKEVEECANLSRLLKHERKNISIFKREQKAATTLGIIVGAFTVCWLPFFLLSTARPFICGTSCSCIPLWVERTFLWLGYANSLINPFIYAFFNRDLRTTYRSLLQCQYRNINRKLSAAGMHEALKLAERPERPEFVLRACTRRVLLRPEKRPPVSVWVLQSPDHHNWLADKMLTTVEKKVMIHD

hD3 = target: T9, hD3 (Homo sapiens, UniProt P35462); assay: Radioligand binding, dopamine D3 ([3H]spiperone); conditions: Table 4; [3H]spiperone 1 nM; read-out: Binding affinity, IC50 (nM) D3
T9 construct: purchased BioSignal Packard Inc., Montreal, Canada
T9 sequence (P35462 whole entry): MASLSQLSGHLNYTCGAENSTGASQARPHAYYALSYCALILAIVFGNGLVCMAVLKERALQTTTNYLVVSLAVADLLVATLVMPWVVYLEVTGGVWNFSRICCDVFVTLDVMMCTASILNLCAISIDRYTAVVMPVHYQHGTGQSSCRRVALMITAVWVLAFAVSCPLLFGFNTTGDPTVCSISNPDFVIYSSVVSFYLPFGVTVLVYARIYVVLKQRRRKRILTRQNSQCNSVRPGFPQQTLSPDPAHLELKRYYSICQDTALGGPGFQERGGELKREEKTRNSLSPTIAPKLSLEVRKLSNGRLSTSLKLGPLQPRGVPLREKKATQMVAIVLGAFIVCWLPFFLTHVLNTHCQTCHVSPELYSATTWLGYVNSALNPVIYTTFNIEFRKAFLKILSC
Procedure, shortened: as §1

Molecule: CNc1cc(NS(=O)(=O)c2ccc(N)cc2)cc(NC)n1 [Ro 63-0563]
- Ki (5-HT6 receptors [1]): 0.012 µM

Molecule: COc1ccc(S(=O)(=O)Nc2cc(Br)cc(F)c2Br)cc1N1CCNCC1 [SB-357134]
- clearance and bioavailability, in words ([2]; in vivo): low clearance rate and excellent oral bioavailability
- seizure threshold (rat; rat maximal electroseizure threshold, oral administration): potent and dose-dependent increase
- retention of a previously learned task (rats [3]): significant improvement

Molecule: SB-271046 [reference compound]
- extracellular glutamate levels [4]: increased extracellular glutamate levels in frontal cortex and dorsal hippocampus by several fold
- oral bioavailability ([2]; background literature): > 80%
- IC50 (5-HT2c): 3960 nM
- anticonvulsant activity (rat): possess anticonvulsant activity
- retention of a previously learned task (rats [3]): significant improvement
- mean startle amplitude compared with methamphetamine group (rats [5]; administered 30 min before methamphetamine): no significant differences
- disruption of PPI by methamphetamine, effect of pretreatment (rats [5]; rats, i.p., 30 min before methamphetamine (3, i.p.), P<0.05): reversed significantly
- IC50 (hD4.2 receptor): > 10000 nM
- IC50 (hD2L): > 10000 nM

Molecule: COc1ccc2c(c1)c(CCN(C)C)cn2S(=O)(=O)c1ccccc1 [MS-245]
- pA2, antagonist (5-HT6 receptors [6]): 8.88

Molecule: CNc1cc(NS(=O)(=O)c2ccc(N)cc2)nc(NC)n1 [Ro 04-6790]
- food intake (rats [7]): decreased food intake
- induction of behavior of yawning, stretching, and chewing (rats [8]): capable of inducing this same effect
- anticonvulsant activity (rat): possess anticonvulsant activity

Molecule: CN(C)CCCN1c2ccccc2Sc2ccc(Cl)cc21 [chlorpromazine]
- affinity at 5-HT6 receptors, in words (5-HT6 receptors [1]): bind with high affinity

Molecule: CN(C)CC/C=C1/c2ccccc2Sc2ccc(Cl)cc21 [chlorprothixene]
- affinity at 5-HT6 receptors, in words (5-HT6 receptors [1]): bind with high affinity

Molecule: CC1(c2ccc(O)cc2)C(=O)c2c(N3CCNCC3)cc(Cl)cc2N(Cc2cccc([N+](=O)[O-])c2)C1=O (stereo not shown) [Example 24, 7-Chloro-3-(4-hydroxy-phenyl)-3-methyl-1-(3-nitro-benzyl)-5-piperazin-1-yl-1H-quinoline-2,4-dione]
- Rotarod deficit (%) (mice; 200 p.o. (dose unit not given)): 0%
- Rotarod deficit (%) (mice; 300 p.o. (dose unit not given)): 0%
- Rotarod deficit (%) (mice; 400 p.o. (dose unit not given)): 0%
- TD50 at 120 min (Rotarod deficit in mice): > 400 mg/kg
- IC50 (5-HT2a): 5040 nM
- IC50 (D1): 4930 nM
- IC50 (5-HT2c): 6090 nM
- melting point: 252 to 253 °C
- IC50 (5-HT1a): > 10000 nM
- IC50 ([9]; Table 2, 1.87 nM [3H]LSD, 37 C, 60 min, read-out: IC50 (nM), binding affinity to the 5-HT6 receptor): 14.5 nM
- IC50 ([9]; Table 4, read-out: Binding affinity, IC50 (nM) 5-HT6): 14.5 nM
- IC50 (hD4.2 receptor): > 10000 nM
- IC50 (5-HT7): > 10000 nM
- IC50 (hD3): 2330 nM
- IC50 (hD2L): 3000 nM
